US7803930B2, “Antisense modulation of apolipoprotein B-expression” (Isis Pharmaceuticals, Inc., priority 2002, dated 2010)
In the oligonucleotide strings, read from the 5' end, every base follows the letter of its sugar. An asterisk marks phosphorothioate; unmarked linkages are phosphodiester. Other units and linkages are bracketed, terminal groups are in braces. A string of capitals states the bases alone. e = 2'-O-(2-methoxyethyl) (MOE); [5mC] = 5-methylcytosine; d = 2'-deoxy (DNA)

Test system: human apolipoprotein B mRNA
Test: Inhibition of human apolipoprotein B mRNA levels in HepG2 cells, quantitative real-time PCR
Type: cell-based
Details: averages from two experiments; for % INHIB: Table 15; for % INHIB / % INHIB 50 nm / % INHIB 150 nm: HepG2 cells; for % INHIB / % INHIB 150 nm: 150 nM; for % INHIB 50 nm / % INHIB 150 nm: Table 11 gene walk
Summary of the method: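 HepG2 cells at 80% confluency were transfected with antisense oligonucleotide using 3.75 μg/mL Lipofectin in Opti-MEM for 4-7 h and harvested 16-24 h after treatment. Apolipoprotein B mRNA was measured by real-time RT-PCR and normalized to GAPDH or RiboGreen total RNA. Percent inhibition came from untreated-control standard curves.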

Row | Substance | % INHIB (inhibition of human apolipoprotein B mRNA levels) (HepG2 cells treated with 150 nM of compound, quantitative real-time PCR) | % INHIB | % INHIB 50 nm | % INHIB 150 nm
1 | 301217 (antisense eA*eG*eA*e[5mC]*eT*d[5mC]*d[5mC]*dA*dT*dT*dT*dA*dT*dT*dT*eG*eT*eT*e[5mC]*e[5mC]) [compound 301217] | 81% | – | – | –
2 | 301218 (antisense eA*e[5mC]*eA*eT*eT*dT*dT*dA*dT*d[5mC]*dA*dA*dT*dG*d[5mC]*e[5mC]*e[5mC]*eT*e[5mC]*eG) [compound 301218] | – | 23% | – | –
3 | 301219 (antisense eG*e[5mC]*e[5mC]*eA*eG*dA*dA*d[5mC]*dA*dT*dT*dT*dT*dA*dT*e[5mC]*eA*eA*eT*eG) [compound 301219] | – | 35% | – | –
4 | 301220 (antisense eA*eG*eA*eG*eG*dT*dT*dT*dT*dG*d[5mC]*dT*dG*dT*dG*e[5mC]*e[5mC]*eA*eG*eA) [compound 301220] | – | 51% | – | –
5 | 301221 (antisense e[5mC]*eT*eA*eG*eA*dG*dG*dT*dT*dT*dT*dG*d[5mC]*dT*dG*eT*eG*e[5mC]*e[5mC]*eA) [compound 301221] | – | 61% | – | –
6 | 301222 (antisense eT*e[5mC]*eT*eA*eG*dA*dG*dG*dT*dT*dT*dT*dG*d[5mC]*dT*eG*eT*eG*e[5mC]*e[5mC]) [compound 301222] | – | 14% | – | –
7 | 301223 (antisense eA*eA*eT*e[5mC]*eA*d[5mC]*dA*d[5mC]*dT*dA*dT*dG*dT*dG*dT*eT*e[5mC]*eT*eA*eG) [compound 301223] | – | 26% | – | –
8 | 301224 (antisense eA*eA*eA*eT*e[5mC]*dA*d[5mC]*dA*d[5mC]*dT*dA*dT*dG*dT*dG*eT*eT*e[5mC]*eT*eA) [compound 301224] | – | 33% | – | –
9 | 301225 (antisense eT*eA*eA*eA*eT*d[5mC]*dA*d[5mC]*dA*d[5mC]*dT*dA*dT*dG*dT*eG*eT*eT*e[5mC]*eT) [compound 301225] | – | 3% | – | –
10 | 301226 (antisense e[5mC]*eT*eT*eA*eA*dA*dT*d[5mC]*dA*d[5mC]*dA*d[5mC]*dT*dA*dT*eG*eT*eG*eT*eT) [compound 301226] | – | 39% | – | –
11 | 301227 (antisense eT*eA*eT*eT*e[5mC]*dT*dG*dT*dT*dA*d[5mC]*dT*dT*dA*dA*eA*eT*e[5mC]*eA*e[5mC]) [compound 301227] | – | 23% | – | –
12 | 308589 (antisense e[5mC]*eT*eT*e[5mC]*eT*dG*d[5mC]*dT*dT*dG*dA*dG*dT*dT*dA*e[5mC]*eA*eA*eA*e[5mC]) [compound 308589] | – | – | 20% | 94%
13 | 308590 (antisense eA*e[5mC]*e[5mC]*eT*eT*d[5mC]*dT*dG*d[5mC]*dT*dT*dG*dA*dG*dT*eT*eA*e[5mC]*eA*eA) [compound 308590] | – | – | 26% | 98%
14 | 308591 (antisense eG*e[5mC]*eA*e[5mC]*e[5mC]*dT*dT*d[5mC]*dT*dG*d[5mC]*dT*dT*dG*dA*eG*eT*eT*eA*e[5mC]) [compound 308591] | – | – | 76% | 92%
15 | 308592 (antisense eT*e[5mC]*eG*e[5mC]*eA*d[5mC]*d[5mC]*dT*dT*d[5mC]*dT*dG*d[5mC]*dT*dT*eG*eA*eG*eT*eT) [compound 308592] | – | – | 49% | 96%
16 | 308593 (antisense e[5mC]*eT*eT*e[5mC]*eG*d[5mC]*dA*d[5mC]*d[5mC]*dT*dT*d[5mC]*dT*dG*d[5mC]*eT*eT*eG*eA*eG) [compound 308593] | – | – | 41% | 80%

Row | Substance | % INHIB (inhibition of human apolipoprotein B mRNA levels) (HepG2 cells treated with 150 nM of compound, quantitative real-time PCR) | % INHIB | % INHIB 50 nm | % INHIB 150 nm
17 | 308594 (antisense eT*eG*e[5mC]*eT*eT*d[5mC]*dG*d[5mC]*dA*d[5mC]*d[5mC]*dT*dT*d[5mC]*dT*eG*e[5mC]*eT*eT*eG) [compound 308594] | – | – | 57% | 88%
18 | 308595 (antisense eT*e[5mC]*eT*eG*e[5mC]*dT*dT*d[5mC]*dG*d[5mC]*dA*d[5mC]*d[5mC]*dT*dT*e[5mC]*eT*eG*e[5mC]*eT) [compound 308595] | – | – | 60% | 82%
19 | 308596 (antisense eA*eG*eT*e[5mC]*eT*dG*d[5mC]*dT*dT*d[5mC]*dG*d[5mC]*dA*d[5mC]*d[5mC]*eT*eT*e[5mC]*eT*eG) [compound 308596] | – | – | 81% | 94%
20 | 308597 (antisense eT*e[5mC]*eA*eG*eT*d[5mC]*dT*dG*d[5mC]*dT*dT*d[5mC]*dG*d[5mC]*dA*e[5mC]*e[5mC]*eT*eT*e[5mC]) [compound 308597] | – | – | 66% | 91%
21 | 308598 (antisense e[5mC]*e[5mC]*eT*e[5mC]*eA*dG*dT*d[5mC]*dT*dG*d[5mC]*dT*dT*d[5mC]*dG*e[5mC]*eA*e[5mC]*e[5mC]*eT) [compound 308598] | – | – | 59% | 85%
22 | 308599 (antisense eA*eG*e[5mC]*e[5mC]*eT*d[5mC]*dA*dG*dT*d[5mC]*dT*dG*d[5mC]*dT*dT*e[5mC]*eG*e[5mC]*eA*e[5mC]) [compound 308599] | – | – | 79% | 94%
23 | 308600 (antisense eG*eT*eA*eG*e[5mC]*d[5mC]*dT*d[5mC]*dA*dG*dT*d[5mC]*dT*dG*d[5mC]*eT*eT*e[5mC]*eG*e[5mC]) [compound 308600] | – | – | 72% | 89%
24 | 308601 (antisense eT*eG*eG*eT*eA*dG*d[5mC]*d[5mC]*dT*d[5mC]*dA*dG*dT*d[5mC]*dT*eG*e[5mC]*eT*eT*e[5mC]) [compound 308601] | – | – | 63% | 91%
25 | 308602 (antisense e[5mC]*eA*eT*eG*eG*dT*dA*dG*d[5mC]*d[5mC]*dT*d[5mC]*dA*dG*dT*e[5mC]*eT*eG*e[5mC]*eT) [compound 308602] | – | – | 83% | 92%
26 | 308603 (eG*eT*e[5mC]*eA*eT*dG*dG*dT*dA*dG*d[5mC]*d[5mC]*dT*d[5mC]*dA*eG*eT*e[5mC]*eT*eG; antisense) [compound 308603] | – | – | 56% | 97%
27 | 308604 (eA*eT*eG*eT*e[5mC]*dA*dT*dG*dG*dT*dA*dG*d[5mC]*d[5mC]*dT*e[5mC]*eA*eG*eT*e[5mC]; antisense) [compound 308604] | – | – | 73% | 90%
28 | 308605 (eG*eA*eA*eT*eG*dT*d[5mC]*dA*dT*dG*dG*dT*dA*dG*d[5mC]*e[5mC]*eT*e[5mC]*eA*eG; antisense) [compound 308605] | – | – | 50% | 81%
29 | 308606 (eT*eT*eG*eA*eA*dT*dG*dT*d[5mC]*dA*dT*dG*dG*dT*dA*eG*e[5mC]*e[5mC]*eT*e[5mC]; antisense) [compound 308606] | – | – | 54% | 97%
30 | 308607 (eA*eT*eT*eT*eG*dA*dA*dT*dG*dT*d[5mC]*dA*dT*dG*dG*eT*eA*eG*e[5mC]*e[5mC]; antisense) [compound 308607] | – | – | 9% | 77%
31 | 308608 (eA*eT*eA*eT*eT*dT*dG*dA*dA*dT*dG*dT*d[5mC]*dA*dT*eG*eG*eT*eA*eG; antisense) [compound 308608] | – | – | 70% | 85%
32 | 308609 (e[5mC]*eA*eG*e[5mC]*e[5mC]*dA*d[5mC]*dA*dT*dG*d[5mC]*dA*dG*d[5mC]*dT*eT*e[5mC]*eA*eG*eG; antisense) [compound 308609] | – | – | 78% | 96%
